Source: patent US20210268070A1, “Use of Immunomodulators to Control Infection and Stimulate Healing in Normal and Diabetic Wounds” (priority 2018, published 2021)

Key:
P. aeruginosa PA103 = experiment: Implant model of infection with PA103; format: in vivo; details: C57B mice, 10^6 PA103, topical at surgical site at time of surgery & infection, 10 ng or 100 ng, dose-dependent, 24 h following infection, FIG. 2A
Description: The implant model of infection in C57B mice was used for 10^6 PA103 (FIG. 2A) or 10^6 USA300 MRSA (FIG. 2C). The wound model of infection was used for 10^6 PA103 in C57BL mice (FIG. 2B) or diabetic db/db mice (FIG. 2D). Infection was carried out at the time of surgery by adding bacteria directly to the surgical sites. Immunomodulators, namely, LPS (10 ng or 100 ng), fMLP (10 ng or 100 ng), CCL3 (1 μg) were added topically at the surgical sites at the time of surgery & infection. GM-CSF (10 μg/kg), tobramycin (Tob at 3.5 mg/kg), and vancomycin (40 mg/kg) were added systemically by i.p. injection 1 h before surgical implantation and infection. Infection levels were determined 24 h following infection (N>4 animals/group; NS=not significant, * p<0.01, ** p<0.001, ***p<0.0001 One-way ANOVA).
We assessed these immunomodulators for their ability to control wound and/or implant SS's in normal (C57BL/6) or diabetic (db/db) mice. We acknowledge that diabetic individuals are not as immunocompromised as other immunocompromised patient groups. […] All immunomodulators were added locally at the surgical sites at the time of infection, except GM-CSF (10 μg/kg) which was administered systemically by i.p. injection 1 h prior to surgery per its FDA-approved route of delivery. […] CCL3 and GM-CSF are also tested using the implant model of infection. Here, we tested CCL3 and GM-CSF in the wound model of infection in C57B mice.
Implant surgery and wound surgery and surgical site infection are performed according to the following method. On the day of surgery, all mice are anesthetized by an intraperitoneal injection of a ketamine/xylazine mixture (90 mg/kg ketamine+5 mg/kg xylazine for mice). The back of the animals is shaved using an electric shave and scrubbed with alcohol swabs 3 times, a topical antiseptic solution (Hibiclens; chlorhexidine gluconate) is applied to the skin. The surgical procedures are performed with sterile instruments, sterile surgical gloves, and aseptic techniques as follows. […]

[1] = test system: inflammatory responses (IL-1 β, TNFα); experiment: Neutrophilia and inflammatory responses in diabetic wounds; format: in vivo, db/db mice
Text: P. aeruginosa PA103 10^3 N=4; Significance determined as compared to PBS *<0.05, **p<0.01, ***p<0.001.
FIG. 13A illustrates that TLR4 ligand increases antimicrobial defenses in diabetic wounds against P. aeruginosa and FIG. 13B TLR4 ligand stimulates inflammatory responses in diabetic wounds. N=4; Significance determined as compared to PBS *<0.05, **p<0.01, ***p<0.001.
Tissue-Tek O.C.T. (Sakura); Lysing Matrix D (MP Biomedicals); Collagenase (Roche Diagnostics), Hematoxylin and eosin (H&E); DNase 1 (Sigma-Aldrich); Hyluronidase, Streptozotocin (Sigma-Aldrich); Trizol (Invitrogen); CD45 antibody (eBioscience, Inc); Ly6C; Ly6G; CD11b; CD3 (BioLegend); CD68; GAPDH (Sigma-Aldrich). Ly6G and CD68 (Abcam); Primer pairs for GAPDH were from Qiagen. Masson's trichrome stain (Sigma-Aldrich); Picrosirius red (Abcam); Fibronectin (Chemicon International); Insulin slow-release capsules (Linplant; LinShin, Toronto, Canada) CCL3 (R&D Systems) fMLP (Sigma-Aldrich); II-1β ELISA (R&D Systems); TNF-α ELISA (R&D Systems).

| Molecule | P. aeruginosa infection levels on both the implants and tissues surrounding implants (P. aeruginosa PA103) | inflammatory responses in diabetic wounds ([1]; compared to PBS, FIG. 13B) | neutrophilia in infected diabetic wounds ([1]; P. aeruginosa PA103 10^3, FIG. 12A) | persistent inflammatory responses (IL-1 β, TNFα) in infected diabetic wounds ([1]; P. aeruginosa PA103 10^3, FIG. 12B, 12C) |
| --- | --- | --- | --- | --- |
| CSCC[C@H](NC=O)C(=O)N[C@@H](CC(C)C)C(=O)N[C@@H](Cc1ccccc1)C(=O)O [fMLP, N-Formylmethionyl-leucyl-phenylalanine] | significantly reduced |  |  |  |
| lipopolysaccharide [LPS] | significantly reduced | stimulates |  |  |
| Chemokine (C-C motif) ligand 3 (protein, listed as Homo sapiens, class 1 immunomodulator) MQVSTAALAVLLCTMALCNQFSASLAADTPTACCFSYTSRQIPQNFIADYFETSSQCSKPGVIFLTKRSRQVCADPSEEWVQKYVSDLELSA |  |  | does not lead to | does not lead to |
